Values of other authors, collected in article PMC4460250, “Systems Pharmacology Dissecting Holistic Medicine for Treatment of Complex Diseases: An Example Using Cardiocerebrovascular Diseases Treated by TCM” (Evidence-based Complementary and Alternative Medicine : eCAM, 2015).
Like-named read-outs stand apart in the source and are kept apart here.

Settings: cited from earlier work

OC[C@H]1O[C@@H](O[C@@H]2[C@@H](CO)OC(O)(CO)[C@H]2O)[C@H](O)[C@@H](O)[C@H]1O (mixture of isomers) [Lactulose]
HIA(Human Intestinal Absorption) (in vivo): 0.01

C#C[C@]1(OC(C)=O)CC[C@H]2[C@@H]3CCC4=CC(=NO)CC[C@@H]4[C@H]3CC[C@@]21CC (mixture of isomers) [Norgestimate]
HIA(Human Intestinal Absorption) (in vivo): 1

CC(=O)Nc1ccc(O)cc1 [Acetaminophen]
HIA(Human Intestinal Absorption) (in vivo): 0.85

CC(=O)Nc1ccccc1 [Acetanilide]
HIA(Human Intestinal Absorption) (in vivo): 1

CC(=O)c1ccc(S(=O)(=O)NC(=O)NC2CCCCC2)cc1 [Acetohexamide]
HIA(Human Intestinal Absorption) (in vivo): 0.8

Cc1cnc(C(=O)O)c[n+]1[O-] [Acipimox]
HIA(Human Intestinal Absorption) (in vivo): 0.95

COc1cc(C)c(/C=C/C(C)=C/C=C/C(C)=C/C(=O)O)c(C)c1C [Acitretin]
HIA(Human Intestinal Absorption) (in vivo): 0.95

Oc1ncnc2[nH]ncc12 [Allopurinol]
HIA(Human Intestinal Absorption) (in vivo): 0.8

C=CCNc1nc(NCC=C)nc(N2CCN(C(c3ccc(F)cc3)c3ccc(F)cc3)CC2)n1 [Almitrine]
HIA(Human Intestinal Absorption) (in vivo): 0.9

CN(C)CCc1c[nH]c2ccc(CS(=O)(=O)N3CCCC3)cc12 [Almotriptan]
HIA(Human Intestinal Absorption) (in vivo): 0.75

NCC[C@H](O)C(=O)N[C@@H]1C[C@H](N)[C@@H](O[C@H]2O[C@H](CN)[C@@H](O)[C@H](O)[C@H]2O)[C@H](O)[C@H]1O[C@H]1O[C@H](CO)[C@@H](O)[C@H](N)[C@H]1O [Amikacin]
HIA(Human Intestinal Absorption) (in vivo): 0.01

CN(C)CCC=C1c2ccccc2CCc2ccccc21 [Amitriptyline]
HIA(Human Intestinal Absorption) (in vivo): 0.95

Nc1cc(-c2ccncc2)c[nH]c1=O [Amrinone]
HIA(Human Intestinal Absorption) (in vivo): 0.93

O=C1CN2Cc3c(ccc(Cl)c3Cl)N=C2N1 [Anagrelide]
HIA(Human Intestinal Absorption) (in vivo): 0.7

NCC[C@H](O)C(=O)N[C@@H]1C[C@H](N)[C@@H](O[C@H]2O[C@H](CN)CC[C@H]2N)[C@H](O)[C@H]1O[C@H]1O[C@H](CO)[C@@H](O)[C@H](N)[C@H]1O [Arbekacin]
HIA(Human Intestinal Absorption) (in vivo): 0.01

CC(=O)Oc1ccccc1C(=O)O [Aspirin]
HIA(Human Intestinal Absorption) (in vivo): 0.82

COc1ccc(CCN2CCC(Nc3nc4ccccc4n3Cc3ccc(F)cc3)CC2)cc1 [Astemizole]
HIA(Human Intestinal Absorption) (in vivo): 1

CN1CCC(=C2c3ccccc3CCc3cccnc32)CC1 [Azatadine]
HIA(Human Intestinal Absorption) (in vivo): 0.9

CN1CCCC(n2nc(Cc3ccc(Cl)cc3)c3ccccc3c2=O)CC1 (stereo not shown) [Azelastine]
HIA(Human Intestinal Absorption) (in vivo): 1

CN1CCN(CCCCN2C(=O)CN(/N=C/c3ccc(-c4ccc(Cl)cc4)o3)C2=O)CC1 [Azimilide]
HIA(Human Intestinal Absorption) (in vivo): 1

NS(=O)(=O)c1cc2c(cc1C(F)(F)F)NC(Cc1ccccc1)NS2(=O)=O (stereo not shown) [Bendroflumethiazide]
HIA(Human Intestinal Absorption) (in vivo): 1

CCc1oc2ccccc2c1C(=O)c1cc(Br)c(O)c(Br)c1 [Benzbromarone]
HIA(Human Intestinal Absorption) (in vivo): 0.73

CN(C)CCCOc1nn(Cc2ccccc2)c2ccccc12 [Benzydamine]
HIA(Human Intestinal Absorption) (in vivo): 0.87

C[N+](C)(CCOc1ccccc1)Cc1ccccc1 [Bephenium]
HIA(Human Intestinal Absorption) (in vivo): 0.05

CC(C)COCC(CN(Cc1ccccc1)c1ccccc1)N1CCCC1 (stereo not shown) [Bepridil]
HIA(Human Intestinal Absorption) (in vivo): 1

CNCCc1ccccn1 [Betahistine]
HIA(Human Intestinal Absorption) (in vivo): 1

CC(C)NCC(O)COc1ccc(CCOCC2CC2)cc1 (stereo not shown) [Betaxolol]
HIA(Human Intestinal Absorption) (in vivo): 0.9

CC(C[N+](C)(C)C)OC(N)=O (stereo not shown) [Bethanechol]
HIA(Human Intestinal Absorption) (in vivo): 0.05

CC(C)(Oc1ccc(CCNC(=O)c2ccc(Cl)cc2)cc1)C(=O)O [Bezafibrate]
HIA(Human Intestinal Absorption) (in vivo): 1

CC(O)(CS(=O)(=O)c1ccc(F)cc1)C(=O)Nc1ccc(C#N)c(C(F)(F)F)c1 (stereo not shown) [Bicalutamide]
HIA(Human Intestinal Absorption) (in vivo): 0.9

CCCC1O[C@@H]2C[C@H]3[C@@H]4CCC5=CC(=O)C=C[C@]5(C)[C@H]4[C@@H](O)C[C@]3(C)[C@]2(C(=O)CO)O1 (stereo partly shown) [Budesonide]
HIA(Human Intestinal Absorption) (in vivo): 1

CCCCCOC(=O)Nc1nc(=O)n([C@@H]2O[C@H](C)[C@@H](O)[C@H]2O)cc1F [Capecitabine]
HIA(Human Intestinal Absorption) (in vivo): 0.96

NC(=O)N1c2ccccc2C=Cc2ccccc21 [Carbamazepine]
HIA(Human Intestinal Absorption) (in vivo): 1

CCOC(=O)n1ccn(C)c1=S [Carbimazole]
HIA(Human Intestinal Absorption) (in vivo): 0.95

O=NN(CCCl)C(=O)NCCCl [Carmustine]
HIA(Human Intestinal Absorption) (in vivo): 1

CC1=C(C(=O)O)N2C(=O)[C@@H](NC(=O)[C@H](N)c3ccc(O)cc3)[C@H]2SC1 [Cefadroxil]
HIA(Human Intestinal Absorption) (in vivo): 1

N[C@@H](C(=O)N[C@@H]1C(=O)N2C(C(=O)O)=C(CSc3c[nH]nn3)CS[C@H]12)c1ccc(O)cc1 [Cefatrizine]
HIA(Human Intestinal Absorption) (in vivo): 0.76

CO[C@@]1(NC(=O)CSCC#N)C(=O)N2C(C(=O)O)=C(CSc3nnnn3C)CS[C@@H]21 [Cefmetazole]
HIA(Human Intestinal Absorption) (in vivo): 0.1

CO/N=C(\C(=O)N[C@@H]1C(=O)N2C(C(=O)O)=C(COC(C)=O)CS[C@H]12)c1csc(N)n1 [Cefotaxime]
HIA(Human Intestinal Absorption) (in vivo): 0.05

COCC1=C(C(=O)OC(C)OC(=O)OC(C)C)N2C(=O)[C@@H](NC(=O)/C(=N\OC)c3csc(N)n3)[C@H]2SC1 (stereo partly shown) [Cefpodoxime_proxetil]
HIA(Human Intestinal Absorption) (in vivo): 0.5

CO/N=C(\C(=O)N[C@@H]1C(=O)N2C(C(=O)O)=CCS[C@H]12)c1csc(N)n1 [Ceftizoxime]
HIA(Human Intestinal Absorption) (in vivo): 0.72

CO/N=C(\C(=O)N[C@@H]1C(=O)N2C(C(=O)O)=C(CSc3nc(=O)c(=O)[nH]n3C)CS[C@H]12)c1csc(N)n1 [Ceftriaxone]
HIA(Human Intestinal Absorption) (in vivo): 1

CO/N=C(\C(=O)N[C@@H]1C(=O)N2C(C(=O)O)=C(COC(N)=O)CS[C@H]12)c1ccco1 [Cefuroxime]
HIA(Human Intestinal Absorption) (in vivo): 1

CC1=C(C(=O)O)N2C(=O)[C@@H](NC(=O)[C@H](N)C3=CCC=CC3)[C@H]2SC1 [Cephradine]
HIA(Human Intestinal Absorption) (in vivo): 0.95

[H]/N=C(\N/C(=N/[H])Nc1ccc(Cl)cc1)NC(C)C [Chlorguanide]
HIA(Human Intestinal Absorption) (in vivo): 0.85

[H]/N=C(\N/C(=N/[H])NCCCCCCNC(=N)NC(=N)Nc1ccc(Cl)cc1)Nc1ccc(Cl)cc1 [Chlorhexidine]
HIA(Human Intestinal Absorption) (in vivo): 0.05

CN(C)CCC(c1ccc(Cl)cc1)c1ccccn1 (stereo not shown) [Chlorpheniramine]
HIA(Human Intestinal Absorption) (in vivo): 0.8

CN(C)CCCN1c2ccccc2Sc2ccc(Cl)cc21 [Chlorpromazine]
HIA(Human Intestinal Absorption) (in vivo): 0.98

CCC#CC[C@H](C)[C@H](O)C#C[C@@H]1[C@H]2C/C(=C/COCC(=O)O)C[C@H]2C[C@H]1O [Cicaprost]
HIA(Human Intestinal Absorption) (in vivo): 1

CCOC(=O)[C@H](CCc1ccccc1)N[C@H]1CCCN2CCC[C@@H](C(=O)O)N2C1=O [Cilazapril]
HIA(Human Intestinal Absorption) (in vivo): 0.59

COc1ccc([C@]2(C#N)CC[C@@H](C(=O)O)CC2)cc1OC1CCCC1 [Cilomilast]
HIA(Human Intestinal Absorption) (in vivo): 1

CN/C(=N/CCSCc1nc[nH]c1C)NC#N [Cimetidine]
HIA(Human Intestinal Absorption) (in vivo): 0.64

COc1cc(N)c(Cl)cc1C(=O)NC1CCN(CCCOc2ccc(F)cc2)CC1OC (stereo not shown) [Cisapride]
HIA(Human Intestinal Absorption) (in vivo): 1

O=P(O)(O)C(Cl)(Cl)P(=O)(O)O [Clodronate]
HIA(Human Intestinal Absorption) (in vivo): 0.03

CCOC(=O)C(C)(C)Oc1ccc(Cl)cc1 [Clofibrate]
HIA(Human Intestinal Absorption) (in vivo): 0.97

Clc1cccc(Cl)c1N=C1NCCN1 [Clonidine]
HIA(Human Intestinal Absorption) (in vivo): 0.95

OCCN1CCN(CCC=C2c3ccccc3Sc3ccc(Cl)cc32)CC1 [Clopenthixol]
HIA(Human Intestinal Absorption) (in vivo): 0.95

C[C@]12C[C@H](O)[C@H]3[C@@H](CCC4=CC(=O)CC[C@@]43C)[C@@H]1CC[C@@H]2C(=O)CO [Corticosterone]
HIA(Human Intestinal Absorption) (in vivo): 1

N[C@@H]1CON=C1O [Cycloserine]
HIA(Human Intestinal Absorption) (in vivo): 0.73

CO[C@H]1C[C@H](O[C@H]2CC[C@]3(C=O)[C@H]4CC[C@]5(C)[C@@H](C6=CC(=O)OC6)CC[C@]5(O)[C@@H]4CC[C@]3(O)C2)O[C@H](C)[C@H]1O [Cymarin]
HIA(Human Intestinal Absorption) (in vivo): 0.47

CC(=O)O[C@]1(C(C)=O)CC[C@H]2[C@@H]3C=C(Cl)C4=CC(=O)[C@@H]5C[C@@H]5[C@]4(C)[C@H]3CC[C@@]21C [Cyproterone_acetate]
HIA(Human Intestinal Absorption) (in vivo): 0.98

O=C1CN(/N=C/c2ccc(-c3ccc([N+](=O)[O-])cc3)o2)C(O)=N1 [Dantrolene]
HIA(Human Intestinal Absorption) (in vivo): 0.8

Nc1ccc(S(=O)(=O)c2ccc(N)cc2)cc1 [Dapsone]
HIA(Human Intestinal Absorption) (human, PreHIA data set, value given as fraction): 0.9

CNCCCN1c2ccccc2CCc2ccccc21 [Desipramine]
HIA(Human Intestinal Absorption) (in vivo): 1

CC(=O)Nc1c(I)c(NC(C)=O)c(I)c(C(=O)O)c1I [Diatrizoate]
HIA(Human Intestinal Absorption) (in vivo): 0.05

CC1=NS(=O)(=O)c2cc(Cl)ccc2N1 [Diazoxide]
HIA(Human Intestinal Absorption) (in vivo): 0.9

CC/C(=C(/CC)c1ccc(O)cc1)c1ccc(O)cc1 [Diethylstilbestrol]
HIA(Human Intestinal Absorption) (in vivo): 0.9

O=C(O)c1cc(-c2ccc(F)cc2F)ccc1O [Diflunisal]
HIA(Human Intestinal Absorption) (in vivo): 0.9

OCCN(CCO)c1nc(N2CCCCC2)c2nc(N(CCO)CCO)nc(N3CCCCC3)c2n1 [Dipyridamole]
HIA(Human Intestinal Absorption) (in vivo): 0.58

CC(C)N(CCC(C(N)=O)(c1ccccc1)c1ccccn1)C(C)C (stereo not shown) [Disopyramide]
HIA(Human Intestinal Absorption) (in vivo): 0.95

CN(C)CC/C=C1\c2ccccc2CSc2ccccc21 [Dothiepin]
HIA(Human Intestinal Absorption) (in vivo): 0.95

COc1cccc2c1C(=O)c1c(O)c3c(c(O)c1C2=O)C[C@@](O)(C(=O)CO)C[C@@H]3O[C@H]1C[C@H](N)[C@H](O)[C@H](C)O1 [Doxorubicin]
HIA(Human Intestinal Absorption) (in vivo): 0.12

CCOC(=O)[C@H](CCc1ccccc1)N[C@@H](C)C(=O)N1CCC[C@H]1C(=O)O [Enalapril]
HIA(Human Intestinal Absorption) (in vivo): 0.66

CSc1ccc(C(=O)c2[nH]c(=O)[nH]c2C)cc1 [Enoximone]
HIA(Human Intestinal Absorption) (in vivo): 0.8

CC[C@H]1OC(=O)[C@H](C)[C@@H](O[C@H]2C[C@@](C)(OC)[C@@H](O)[C@H](C)O2)[C@H](C)[C@@H](O[C@@H]2O[C@H](C)C[C@H](N(C)C)[C@H]2O)[C@](C)(O)C[C@@H](C)C(=O)[C@H](C)[C@@H](O)[C@]1(C)O [Erythromycin]
HIA(Human Intestinal Absorption) (in vivo): 0.35

CCc1cc(C(N)=S)ccn1 [Ethionamide]
HIA(Human Intestinal Absorption) (in vivo): 0.9
